# Results as given in patent publication US11440913B2, “Aminoimidazopyridazines as kinase inhibitors” (BRISTOL-MYERS SQUIBB COMPANY, priority 2017, dated 2022).
# Where a name gives a salt, the structure may show the parent alone. Read-outs that look alike come from different tables or passages of the source.
# Experiments:
# [1] = biological target: His-GST-TVMV-hRIPK1(1-324) (Homo sapiens (Human), UniProt Q13546); assay: RIPK1 HTRF Binding Assay; details: HTRF binding, 1 h at rt; read-out: RIPK1 (IC50)
# Sequence of His-GST-TVMV-hRIPK1(1-324) (Q13546 1-324): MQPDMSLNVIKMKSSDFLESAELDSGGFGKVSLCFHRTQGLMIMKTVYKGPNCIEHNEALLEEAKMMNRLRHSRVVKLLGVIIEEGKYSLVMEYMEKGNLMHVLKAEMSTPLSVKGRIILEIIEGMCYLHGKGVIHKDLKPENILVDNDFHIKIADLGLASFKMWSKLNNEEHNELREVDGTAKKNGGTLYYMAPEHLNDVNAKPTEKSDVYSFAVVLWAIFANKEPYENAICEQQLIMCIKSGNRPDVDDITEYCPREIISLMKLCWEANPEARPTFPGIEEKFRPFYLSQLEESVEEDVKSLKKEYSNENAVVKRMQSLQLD
# In short: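 HTRF probe-displacement binding: 1 nM His-GST-TVMV-hRIPK1(1-324) (baculovirus construct), 90.6 nM probe, 0.2 nM anti-GST-Tb in 20 mM HEPES, 10 mM MgCl2, 0.015% Brij-35, 4 mM DTT, 0.05 mg/mL BSA. Incubated 1 h at rt; FRET 520/495 nm ratio, inhibition relative to DMSO-only wells.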
# [2] = test system: MLKL phosphorylation in HT29-L23 human colorectal adenocarcinoma cells; assay: MLKL Phosphorylation High-Content Assay; type: cell-based; details: 6 h, necroptosis induced with TNFα, SMAC mimetic and Z-VAD, read-out: pMLKL (IC50)
# In short: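 HT29-L23 cells pretreated 30 min at 37 °C with compound (6.25 to 0.106 μM final), then necroptosis induced with TNFα 35 ng/mL, SMAC mimetic 700 nM and Z-VAD 140 nM for 6 h. Fixed cells immunostained for MLKL pS358 and imaged; IC50 and Ymax from 4-parameter logistic fit.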
smiles,measurement,setting,value
"COc1nc(C)c(-c2ccc3nc(NC(C)=O)cn3n2)cc1C(=O)NCCc1cccc(OC(F)(F)F)c1 [Example 304, 5-{2-acetamidoimidazo[1,2-b]pyridazin-6-yl}-2-methoxy-6-methyl-N-{2-[3-(trifluoromethoxy)phenyl]ethyl}pyridine-3-carboxamide]",IC50,[1],206 nM
same,IC50,[2]; Homo sapiens,67 nM
"COc1nc(C)c(-c2ccc3nc(NC(C)=O)cn3n2)cc1C(=O)NCc1cccc(C(F)(F)F)c1 [Example 305, 5-{2-acetamidoimidazo[1,2-b]pyridazin-6-yl}-2-methoxy-6-methyl-N-{[3-(trifluoromethyl)phenyl]methyl}pyridine-3-carboxamide]",IC50,[1],41 nM
same,IC50,[2]; Homo sapiens,77 nM
"COc1nc(C)c(-c2ccc3nc(NC(C)=O)cn3n2)cc1C(=O)NCc1ccccc1OC1CCOC1 (centres unmarked) [Example 306, 5-{2-acetamidoimidazo[1,2-b]pyridazin-6-yl}-2-methoxy-6-methyl-N-{[2-(oxolan-3-yloxy)phenyl]methyl}pyridine-3-carboxamide]",IC50,[1],5 nM
same,IC50,[2]; Homo sapiens,6 nM
"COc1nc(C)c(-c2ccc3nc(NC(C)=O)cn3n2)cc1C(=O)NCc1ccccc1OC1CCOC1 (centres unmarked) [Example 307, 5-{2-acetamidoimidazo[1,2-b]pyridazin-6-yl}-2-methoxy-6-methyl-N-{[2-(oxolan-3-yloxy)phenyl]methyl}pyridine-3-carboxamide]",IC50,[1],11 nM
same,IC50,[2],5 nM
"COc1nc(C)c(-c2ccc3nc(NC(C)=O)cn3n2)cc1C(=O)NCc1c(F)cc(F)cc1OCC1CCCC1 [Example 308, N-{[2-(cyclopentylmethoxy)-4,6-difluorophenyl]methyl}-5-{2-acetamidoimidazo[1,2-b]pyridazin-6-yl}-2-methoxy-6-methylpyridine-3-carboxamide]",IC50,[1],8 nM
same,IC50,[2]; Homo sapiens,11 nM
"COc1nc(C)c(-c2ccc3nc(NC(C)=O)cn3n2)cc1C(=O)NCc1cccc(OCC2CC2)c1 [Example 309, N-{[3-(cyclopropylmethoxy)phenyl]methyl}-5-{2-acetamidoimidazo[1,2-b]pyridazin-6-yl}-2-methoxy-6-methylpyridine-3-carboxamide]",IC50,[1],19 nM
same,IC50,[2]; Homo sapiens,46 nM
"COc1nc(C)c(-c2ccc3nc(NC(C)=O)cn3n2)cc1C(=O)NCc1ccccc1OCC1CCC(F)(F)CC1 [Example 310, N-({2-[(4,4-difluorocyclohexyl)methoxy]phenyl}methyl)-5-{2-acetamidoimidazo[1,2-b]pyridazin-6-yl}-2-methoxy-6-methylpyridine-3-carboxamide]",IC50,[1],21 nM
same,IC50,[2]; Homo sapiens,125 nM
"COc1nc(C)c(-c2ccc3nc(NC(C)=O)cn3n2)cc1C(=O)NCc1cc(OC(F)(F)F)ccc1F [Example 311, 5-{2-acetamidoimidazo[1,2-b]pyridazin-6-yl}-N-{[2-fluoro-5-(trifluoromethoxy)phenyl]methyl}-2-methoxy-6-methylpyridine-3-carboxamide, TFA]",IC50,[1],6 nM
same,IC50,[2],4 nM
"COc1nc(C)c(-c2ccc3nc(NC(C)=O)cn3n2)cc1C(=O)NCc1ncccc1OCC1CCCC1 [Example 312, N-{[3-(cyclopentylmethoxy)pyridin-2-yl]methyl}-5-{2-acetamidoimidazo[1,2-b]pyridazin-6-yl}-2-methoxy-6-methylpyridine-3-carboxamide, 2 TFA]",IC50,[1],7 nM
same,IC50,[2],38 nM
"COc1nc(C)c(-c2ccc3nc(NC(C)=O)cn3n2)cc1C(=O)NCc1cccnc1OCC1CCCC1 [Example 313, N-{[2-(cyclopentylmethoxy)pyridin-3-yl]methyl}-5-{2-acetamidoimidazo[1,2-b]pyridazin-6-yl}-2-methoxy-6-methylpyridine-3-carboxamide]",IC50,[1],9 nM
same,IC50,[2]; Homo sapiens,22 nM
"COc1nc(C)c(-c2ccc3nc(NC(C)=O)cn3n2)cc1C(=O)NCc1cccnc1OCC1CCC1 [Example 314, N-{[2-(cyclobutylmethoxy)pyridin-3-yl]methyl}-5-{2-acetamidoimidazo[1,2-b]pyridazin-6-yl}-2-methoxy-6-methylpyridine-3-carboxamide]",IC50,[1],5 nM
same,IC50,[2]; Homo sapiens,3 nM
"COc1nc(C)c(-c2ccc3nc(NC(C)=O)cn3n2)cc1C(=O)NCc1cc(F)ccc1OCC1CCCC1 [Example 315, N-{[2-(cyclopentylmethoxy)-5-fluorophenyl]methyl}-5-{2-acetamidoimidazo[1,2-b]pyridazin-6-yl}-2-methoxy-6-methylpyridine-3-carboxamide]",IC50,[1],5 nM
same,IC50,[2]; Homo sapiens,9 nM
"COc1nc(C)c(-c2ccc3nc(NC(C)=O)cn3n2)cc1C(=O)NCc1ccccc1OCC1CCCC1 [Example 316, N-{[2-(cyclopentylmethoxy)phenyl]methyl}-5-{2-acetamidoimidazo[1,2-b]pyridazin-6-yl}-2-methoxy-6-methylpyridine-3-carboxamide]",IC50,[1],4 nM
same,IC50,[2]; Homo sapiens,8 nM
"COc1nc(C)c(-c2ccc3nc(NC(C)=O)cn3n2)cc1C(=O)NCc1ccc(F)cc1OCC1CC1 [Example 317, N-{[2-(cyclopropylmethoxy)-4-fluorophenyl]methyl}-5-{2-acetamidoimidazo[1,2-b]pyridazin-6-yl}-2-methoxy-6-methylpyridine-3-carboxamide]",IC50,[1],3 nM
same,IC50,[2]; Homo sapiens,19 nM
"COc1nc(C)c(-c2ccc3nc(NC(C)=O)cn3n2)cc1C(=O)NCc1ccccc1OCC1CC1 [Example 318, N-{[2-(cyclopropylmethoxy)phenyl]methyl}-5-{2-acetamidoimidazo[1,2-b]pyridazin-6-yl}-2-methoxy-6-methylpyridine-3-carboxamide]",IC50,[1],3 nM
same,IC50,[2]; Homo sapiens,2 nM
"COc1nc(C)c(-c2ccc3nc(NC(C)=O)cn3n2)cc1C(=O)NCc1cccc(OC(F)(F)F)c1 [Example 319, 5-{2-acetamidoimidazo[1,2-b]pyridazin-6-yl}-2-methoxy-6-methyl-N-{[3-(trifluoromethoxy)phenyl]methyl}pyridine-3-carboxamide]",IC50,[1],15 nM
same,IC50,[2]; Homo sapiens,29 nM
"CC(=O)Nc1cn2nc(-c3cc(C(=O)NCc4cc(F)ccc4OC(F)(F)F)cnc3Cl)ccc2n1 [Example 321, 6-chloro-5-{2-acetamidoimidazo[1,2-b]pyridazin-6-yl}-N-{[5-fluoro-2-(trifluoromethoxy)phenyl]methyl}pyridine-3-carboxamide]",IC50,[1],44 nM
same,IC50,[2]; Homo sapiens,386 nM
"CC(=O)Nc1cn2nc(-c3cc(C(=O)NCc4cc(F)ccc4OC(F)(F)F)cnc3Cl)ccc2n1 [Example 322, 6-chloro-5-{2-acetamidoimidazo[1,2-b]pyridazin-6-yl}-N-{[5-fluoro-2-(trifluoromethoxy)phenyl]methyl}pyridine-3-carboxamide]",IC50,[1],8 nM
same,IC50,[2],51 nM
"CC(=O)Nc1cn2nc(-c3cc(C(=O)NCc4c(F)cccc4OCC(F)(F)F)c(C)nc3C)ccc2n1 [Example 325, 5-{2-acetamidoimidazo[1,2-b]pyridazin-6-yl}-N-{[2-fluoro-6-(2,2,2-trifluoroethoxy)phenyl]methyl}-2,6-dimethylpyridine-3-carboxamide]",IC50,[1],9 nM
same,IC50,[2]; Homo sapiens,17 nM
"CC(=O)Nc1cn2nc(-c3cc(C(=O)NCc4cc(OCC5CC5)ccc4F)c(C)nc3C)ccc2n1 [Example 326, N-{[5-(cyclopropylmethoxy)-2-fluorophenyl]methyl}-5-{2-acetamidoimidazo[1,2-b]pyridazin-6-yl}-2,6-dimethylpyridine-3-carboxamide]",IC50,[1],6 nM
same,IC50,[2]; Homo sapiens,10 nM
"CC(=O)OCC(=O)Nc1cn2nc(-c3cc(C(=O)NCc4cc(OC(F)(F)F)ccc4F)c(C)nc3C)ccc2n1 [Example 327, ({6-[5-({[2-fluoro-5-(trifluoromethoxy)phenyl]methyl}carbamoyl)-2,6-dimethylpyridin-3-yl]imidazo[1,2-b]pyridazin-2-yl}carbamoyl)methyl acetate]",IC50,[1],5 nM
same,IC50,[2]; Homo sapiens,25 nM
"CCc1ncc(-c2ccc3nc(NC(C)=O)cn3n2)cc1C(=O)N[C@H](C)c1cc(OC(F)(F)F)ccc1F [Example 328, 5-{2-acetamidoimidazo[1,2-b]pyridazin-6-yl}-2-ethyl-N-[(1R)-1-[2-fluoro-5-(trifluoromethoxy)phenyl]ethyl]pyridine-3-carboxamide]",IC50,[1],36 nM
same,IC50,[2]; Homo sapiens,198 nM
"CCc1ncc(-c2ccc3nc(NC(C)=O)cn3n2)cc1C(=O)NCc1cc(C(F)(F)F)ccc1F [Example 329, 5-{2-acetamidoimidazo[1,2-b]pyridazin-6-yl}-2-ethyl-N-{[2-fluoro-5-(trifluoromethyl)phenyl]methyl}pyridine-3-carboxamide]",IC50,[1],53 nM
same,IC50,[2]; Homo sapiens,88 nM
"CC(=O)Nc1cn2nc(-c3cnc(C)c(C(=O)N(C)[C@H](C)c4cc(OC(F)(F)F)ccc4F)c3)ccc2n1 [Example 330, 5-{2-acetamidoimidazo[1,2-b]pyridazin-6-yl}-N-[(1R)-1-[2-fluoro-5-(trifluoromethoxy)phenyl]ethyl]-N,2-dimethylpyridine-3-carboxamide]",IC50,[1],46 nM
same,IC50,[2]; Homo sapiens,106 nM
"Cc1ncc(-c2ccc3nc(NC(=O)CN4CCN(C)CC4)cn3n2)cc1C(=O)N[C@H](C)c1cc(C(F)(F)F)ccc1F [Example 332, N-[(1R)-1-[2-fluoro-5-(trifluoromethyl)-phenyl]ethyl]-2-methyl-5-{2-[2-(4-methylpiperazin-1-yl)acetamido]imidazo[1,2-b]pyridazin-6-yl}pyridine-3-carboxamide]",IC50,[1],308 nM
same,IC50,[2]; Homo sapiens,25 nM
